Measured values taken from patent publication US10828309B2, “Dermocosmetic or pharmaceutical use of a composition comprising at least one inhibitor of some chemoattractant cytokines” (GREENPHARMA, priority 2014, dated 2020).
Like-named read-outs stand apart in the source and are kept apart here.

What was measured:
[1] = molecular target: T1, CCL17 (Homo sapiens, UniProt Q92583); experiment: Interaction affinity with CCL17 by fluorescence extinction of tryptophan residues; format: binding; details: CCL17 1.5 μm, excitation 285 nm
T1 sequence (Q92583 24-94): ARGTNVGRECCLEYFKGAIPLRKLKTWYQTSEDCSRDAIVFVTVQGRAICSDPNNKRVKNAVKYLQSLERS
Protocol: Briefly: the fluorescence measurements are carried out on a spectrofluorimeter Fluorolog 3 (JobinYvon/Spex) in a quartz cuvette. […] The measurements are carried out at 20° C. and the solutions are stirred using a magnetic stir bar. The recorded emission spectra are corrected by subtraction of the emission spectrum of the compound to be tested alone.

[2] = molecular target: T2, CCL17 chemokine (Homo sapiens, UniProt Q92583); experiment: Inhibition of calcium response induced by CCL17 in HEK 293 cells expressing CCR4 (Indo-1); format: cell-based
T2 construct: purchased; host or cells: HEK 293 cells stably transfected with EGFP-CCR4, transiently transfected with Gqi5
T2 sequence (Q92583 24-94): T1 sequence (Q92583 24-94)
Protocol: HEK 293 cells (ATCC) are cultured in minimal essential medium MEM (Invitrogen) in the presence of 10% of fetal calf serum (Gibco-BRL), 100 U/mL of penicillin (Invitrogen), 100 μg/mL of streptomycin (Invitrogen) and 2 mM of L-glutamine (Invitrogen) at 37° C. in water-saturated atmosphere and containing 5% of 002. […] The clones are selected after having been characterized by fluorescence microscopy and cytometric analysis by FACS (fluorescence assisted cell sorting).
(§1) In order to enable an easy recording of the cell responses associated to the CCR4 receptor, we modify its natural coupling to the inhibition of AMPc production to a coupling to the phospholipase C which enables calcium measurements. We produce for this purpose the chimeric protein Gqi5 by directed mutagenesis of the 5 las amino acids of Gq replaced by their homologues of Gi. The cells expressing the CCR4 receptor are transfected with the plasmid pCNA3.1 in which the cDNA encoding Gqi5 has been incorporated. The recordings of calcic responses are performed the day after de transfection.
(§2) The cells are loaded with a fluorescent calcium indicator, INDO-1, according to the protocol provided by the provider (Molecular probes), distributed in microplate wells and placed in a fluorescence reader-pipettor (FlexStation, Molecular devices).
Measure points are recorded every 5 s for 150 s for each well. The molecules are tested in the presence of 5 nM of CCL17 chemokine (commercial).
The molecules are tested at the concentration of 10 μm. The concentration of CCL17 is 5 nM.

[3] = molecular target: T3, CCL22 (Homo sapiens, UniProt O00626); experiment: Inhibition of calcium response induced by CCL22 in cells expressing CCR4 (Indo-1); format: cell-based; details: molecules at 10 μm, read-out: Inhibition of calcium responses induced by CCL22 (%)
T3 sequence (O00626 25-93): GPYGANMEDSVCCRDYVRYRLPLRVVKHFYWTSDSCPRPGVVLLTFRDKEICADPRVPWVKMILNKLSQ
Protocol: In order to enable an easy recording of the responses associated to the CCR4 receptor, the cDNA which allows its expression is cloned in the plasmid pIRES (ClonTech) in fusion with the GFP protein, according to Vollmer et al. (1999), which enables to easily measure the expression of the chimeric EGFP-CCR4 receptor. HEK 293 cells (ATCC) are cultured in minimal essential medium MEM (Invitrogen) in the presence of 10% of fetal calf serum (Gibco-BRL), 100 U/mL of penicillin (Invitrogen), 100 μg/mL of streptomycin (Invitrogen) and 2 mM of L-glutamine (Invitrogen) at 37° C. in water-saturated atmosphere and containing 5% of 002. The cells are transfected according to the calcium phosphate precipitate method of Chen ant Okayama, 1986, and the cells having incorporated the expression plasmid are selected with 600 μg/mL of geneticin G-418 (PAA) for 5 weeks. The clones are selected after having been characterized by fluorescence microscopy and cytometric analysis by FACS (fluorescence assisted cell sorting).
as §1, §2
Intracellular calcium elevation is measured by fluorescence intensity change at 401 and 475 nm (excitation 355 nm). Measure points are recorded every 5 s for 150 s for each well. The molecules are tested in the presence of 5 nM of CCL17 chemokine (commercial).
The response develops in a few seconds and fades with time for reaching the return in approximately 2 minutes for a CCL17 chemokine concentration of 5 to 10 nM in HEK 293 cells expressing CCR4. If the molecules to be tested are preincubated with chemokine [CK+N] and if the mixture is added to the cells, we observe a strong decrease in the amplitude of the response if the molecule to be tested is a neutralizing ligand of the chemokine. Conversely, when the neutralizing ligand is preincubated with the cells expressing the receptor [CKR+N] we observe a much smaller decrease of the amplitude of the response.
The analysis of the molecules selectivity is carried out by measuring the inhibition (at the concentration of 10 μm) of the response evoked by other chemokines (5 μm) on their respective receptors. Thus, in FIG. 3, the molecules have been tested on the pairs CCL2/CCR2, CCL3/CCR5, CCL17/CCR4, CCL22/CCR4, […], CXCL11/CXCR3, CXCL12/CXCR4.

[4] = tested on: Hacat cells; experiment: Human keratinocytes migration assay (in vitro wound-healing test in a cell monolayer); format: cell-based
Protocol: It is actually known that, in chronic pathologies an important cell migration may promote de formation of pruritus, one of the signs of dermatosis. The immortalized human keratinocytes obtained from the DKFZ (Heidelberg, Germany) are cultivated in Dulbecco medium modified by Eagle (DMEM, Invitrogen) supplemented with 10% of fetal calf serum (Gibco-BRL) and 100 U/ml of penicillin (Invitrogen), 100 μg/ml of streptomycin (Invitrogen) and 2 mM of L-glutamine (Invitrogen) at 37° C. and 5% of CO2. The wells of a culture plate of 24 well are inoculated with 200,000 cells and the culture is maintained until formation of a confluent cell monolayer. The cell monolayer is then damaged by performing a linear gap (scratch) using a sterile pipette head of 0.1-10 μL. […] The effect of the molecules alone is also recorded in different wells. In order to block cell proliferation, each well receives a dose of 1 μg/ml of mitomycin (Sigma-Aldrich). The culture plates are arranged in the IncuCyte apparatus (Essence Bioscience) which records the growth on the cell monolayer by transmitted imaging in cell culture conditions (37° C., 5% CO2, water-saturated atmosphere) for 72 h. Phase-contrast images are collected every 2 hours. Healing is defined (quantified) as the ratio of the width of the scar at time t and time 0. The experiment is repeated three times per condition.

[5] = tested on: Hacat cells; experiment: Cytotoxicity measurement, WST-1 metabolic activity test; format: cell-based, human; details: 0.3 μM, 10 μM or 30 μM, 72 hours
[6] = tested on: human monocytes; experiment: Cytotoxicity on human monocytes, Alamar blue assay; format: cell-based; details: human monocytes with LPS, 5 concentrations, 24 hours
Protocol: Monocytes are inoculated in plates of 96 wells (approx. 5000 cells/well of 200 μl) for the Alamar blue assay.
After 24 hours, Alamar blue fluorescence is measured.

[7] = molecular target: T4, COX-1 (Homo sapiens, UniProt P23219); experiment: COX-1 activity by PGE2 production in monocytes treated with arachidonic acid; format: cell-based; details: up to 250 μM
T4 construct: endogenous in cells; host or cells: human monocytes in culture
Protocol: (§3) Determination of the Activity of COX 1 and COX 2 Cyclooxygenases on Human Monocytes in Culture.
COX-1: the release of COX-1 mediated prostaglandin E2 (PGE2) is determined by the arachidonic acid method. […] After 15 minutes of stimulation, the activity of COX-1 is measured by determination of the production of PGE2. Aspirin (ASS) a known inhibitor of COX-1 is used as a control inhibitor.

[8] = molecular target: T5, COX-2 (Homo sapiens, UniProt P35354); experiment: COX-2 activity by PGE2 production in LPS-induced monocytes; format: cell-based; details: LPS-treated monocytes
T5 construct: endogenous in cells; host or cells: human monocytes in culture, LPS-induced
T5 sequence (P35354 18-604): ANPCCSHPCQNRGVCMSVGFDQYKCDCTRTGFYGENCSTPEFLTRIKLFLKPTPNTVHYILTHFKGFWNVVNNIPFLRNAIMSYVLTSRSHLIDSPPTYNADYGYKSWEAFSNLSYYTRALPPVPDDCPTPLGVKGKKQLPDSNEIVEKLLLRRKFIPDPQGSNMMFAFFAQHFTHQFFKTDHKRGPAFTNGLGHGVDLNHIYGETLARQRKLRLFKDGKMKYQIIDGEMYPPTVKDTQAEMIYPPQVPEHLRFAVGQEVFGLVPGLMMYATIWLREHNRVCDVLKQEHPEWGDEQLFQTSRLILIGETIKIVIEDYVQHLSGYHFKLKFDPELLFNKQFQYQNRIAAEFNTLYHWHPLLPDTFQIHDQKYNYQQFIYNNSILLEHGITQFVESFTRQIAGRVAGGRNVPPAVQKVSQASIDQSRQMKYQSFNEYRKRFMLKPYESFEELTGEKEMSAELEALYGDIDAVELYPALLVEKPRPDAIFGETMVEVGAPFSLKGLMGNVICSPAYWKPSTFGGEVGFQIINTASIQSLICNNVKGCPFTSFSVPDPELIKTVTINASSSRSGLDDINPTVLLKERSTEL
Protocol: as §3
COX-2: monocytes are incubated with LPS (10 U/ml) for 24 h in order to induce COX-2 synthesis. […] The arachidonic acid is added 15 minutes after the compounds to be tested, and 15 minutes later the production of PGE2 is determined.

[9] = HEK293, molecules at 10 μm, CCL17 5 nM, HEK 293 cells expressing CCR4, read-out: Inhibition of calcium responses induced by CCL17 (%)
[10] = HEK293, read-out: Inhibition of calcium responses induced by CCL17 (%)

| inhibition at 10 µM [2, 9] [%] | SMILES | inhibition at 10 µM [3] [%] | inhibition at 10 µM [2, 10] [%] | also measured |
| --- | --- | --- | --- | --- |
|  | COc1cc2nc(N3CCC(N4CCCCC4)CC3)nc(NC3CCCCCC3)c2cc1OC [C-021, reference compound] |  |  | Fluorescence extinction of CCL17 (intrinsic tryptophan fluorescence) [1]: no signal |
| 0 | Cc1nc2c(=O)[nH]c(=O)[nH]c2[nH]1 [GPN062] | 0 |  |  |
|  | CC(C)=CCn1cnc2c1c(=O)n(C)c(=O)n2C [GPN279, 3,7-dihydro-1,3-dimethyl-7-(3-methyl-2-butenyl)-1H-purin-2,6-dione] | 0 |  | Inhibition of calcium responses induced by CCL17 (%) ([2]; molecules at 10 μm, CCL17 5 nM, HEK 293 cells expressing CCR4): 42 ± 4%; Fluorescence extinction of CCL17 (intrinsic tryptophan fluorescence) [1]: fluorescence extinction of CCL17 is observed; Effect on cell migration accelerated by the CCL17 chemokine ([4]; Hacat monolayer, CCL17 100 ng/ml, 72 hours): abolished; Dose-response relationship on Hacat cell monolayer healing ([4]; with CCL17, 0.3 μM, 1 μM, 10 μM): its effect depends on the dose; Effect of the molecule alone on Hacat cell monolayer healing ([4]; without CCL17): does not have an effect; Activity of the mitochondrial enzyme (WST-1, absorbance 450 nm) [5]: does not affect enzymatic activity; Cytotoxicity by Alamar blue [6]: not cytotoxic; COX-1 inhibition (PGE2 production) [7]: not a COX-1 inhibitor; Effect on COX-2 activity (PGE2 production) ([8]; beyond 100 μM): slight increase in COX-2 activity; Effect on COX-2 activity (PGE2 production) ([8]; up to the dose of 100 μM): no effect |
|  | CCCCn1cnc2c1c(=O)n(C)c(=O)n2C [GPS008658, 3,7-dihydro-7-butyl-1,3-dimethyl-1H-purine-2,6-dione] | 32 ± 8 | 40 ± 9 |  |
|  | CC(C)Cn1cnc2c1c(=O)n(C)c(=O)n2C [GPS008659, 3,7-dihydro-7-isobutyl-1,3-dimethyl-1H-purine-2,6-dione] | 5 ± 5 | 36 ± 7 |  |
|  | C=CCn1cnc2c1c(=O)n(C)c(=O)n2C [GPS008660, 3,7-dihydro-7-allyl-1,3-dimethyl-1H-purine-2,6-dione] | 0 | 19 ± 5 |  |
| 0 | CCCCC(CC)Cn1cnc2c1c(=O)n(C)c(=O)n2C (stereo not shown) [GPS008661, 3,7-dihydro-7-(2-ethylhexyl)-1,3-dimethyl-1H-purine-2,6-dione] | 0 |  |  |
| 0 | CC(C)Cn1c(=O)n(C)c(=O)c2nc[nH]c21 [IBMX, reference compound] | 0 |  |  |
|  | Cn1c(=O)c2[nH]cnc2n(C)c1=O [Theophylline, reference compound] | 0 | 0 |  |

| SMILES | inhibition at 10 µM [2, 9] [%] | inhibition at 10 µM [3] [%] | inhibition at 10 µM [2, 10] [%] | also measured |
| --- | --- | --- | --- | --- |
| Cn1c(=O)c2c(ncn2C)n(C)c1=O [Caffeine, reference compound] | 0 | 0 |  |  |
